These results are taken from patent publication US20260226067A1, “MODULATORS OF TRPML, THEIR COMPOSITIONS AND METHODS OF USE” (Caraway Therapuetics, Inc., priority 2023, published 2026).

The target in test [1] is human TRPML1 (Homo sapiens, UniProt Q9GZU1). In words: Fluorescent TRPML1 assay (Fluo4-AM calcium fluorescence). The class given is cell-based. The conditions noted are these: HEK-293 Trex cells expressing hTRPML1, Fluo4-AM fluorescence; read-out: Human TRPML 1 EC50. The method, then: (§1) HEK-293 Trex cells were stably transfected with a construct consisting of the human coding sequence for TRPML1 cloned into the tet-inducible plasmid pCDNA5 T/O. Mutations were introduced into the TRPML1 sequence to facilitate expression on the cell surface (Silvia Vergarajauregui, Rosa Puertollano Traffic. 2006 March; 7(3): 337-353). Briefly, the cells are cultured in 150 mm round tissue culture dishes containing 20 mL of media. The day before the assay the cells are rinsed with DPBS-Ca-Mg and then treated briefly with Trypsin-EDTA. The Trypsin-EDTA is diluted with growth media, and cells are counted. 38×10^6 cells are re-plated into 150 mm round tissue culture dishes in media containing 0.5 ug/mL doxycycline to induce expression of hTRPML1.
(§2) The day of the experiment cells are lifted from the plates as above and collected by centrifugation. The cells are then suspended in dye loading buffer consisting of Ringer's solution supplemented with 0.1% Pluronic Acid and 1 micromolar Fluo4-AM dye. Cells are loaded for ~60 minutes in the dark with occasional mixing. The cells are collected by centrifugation, the loading media aspirated, and the cells resuspended in 25 mL Ringer's solution and incubated ~60 minutes in the dark. The cells are again collected by centrifugation, rinsed in Ringer's Solution and resuspended to 0.2×10^6 cells/mL in modified Ringer's solution containing 10 mM calcium.
(§3) Compounds are dissolved to a concentration of 10 millimolar with DMSO. Compound plates are created by dispensing compounds into 384 well black wall clear bottom plates (Greiner 781091). Positive and negative controls are included on each plate. Typically, different amounts of each compound are tested ranging from 100 nanoMoles (20 micromolar final concentration) decreasing in half-log steps to 31 picoMoles (6 nanomolar final concentration). Each concentration is typically tested in triplicate.
(§4) 50 microliters of dye-loaded cells are dispensed into each well of the compound assay plate created above. The fluorescence in each well is then determined with an excitation wavelength of 480 nm and an emission wavelength of 540 nm using either a Molecular Devices SpectraMax multimode plate reader or a Hamamatsu FDSS/uCell plate imager.
(§5) The resulting fluorescence for each well is exported as an ascii file and loaded into our LIMS for analysis. The percent activity of each compound at each concentration is determined by comparison to the positive and negative control wells included in each plate.
(§6) EC50 values were calculated using a non-linear regression of Prism. In the table, “A” indicates an EC50 of less than 100 nM, “B” indicates an EC50 range from 100 nM to 500 nM; “C” indicates an EC50 range from 500 nM to 2 μM; and “D” indicates an EC50 greater than 2 μM.

Test [2] deals with T1, Human TRPML3 (Homo sapiens, UniProt Q8TDD5).
T1 construct: expressed in transfected cells
T1 sequence (Q8TDD5 1-553): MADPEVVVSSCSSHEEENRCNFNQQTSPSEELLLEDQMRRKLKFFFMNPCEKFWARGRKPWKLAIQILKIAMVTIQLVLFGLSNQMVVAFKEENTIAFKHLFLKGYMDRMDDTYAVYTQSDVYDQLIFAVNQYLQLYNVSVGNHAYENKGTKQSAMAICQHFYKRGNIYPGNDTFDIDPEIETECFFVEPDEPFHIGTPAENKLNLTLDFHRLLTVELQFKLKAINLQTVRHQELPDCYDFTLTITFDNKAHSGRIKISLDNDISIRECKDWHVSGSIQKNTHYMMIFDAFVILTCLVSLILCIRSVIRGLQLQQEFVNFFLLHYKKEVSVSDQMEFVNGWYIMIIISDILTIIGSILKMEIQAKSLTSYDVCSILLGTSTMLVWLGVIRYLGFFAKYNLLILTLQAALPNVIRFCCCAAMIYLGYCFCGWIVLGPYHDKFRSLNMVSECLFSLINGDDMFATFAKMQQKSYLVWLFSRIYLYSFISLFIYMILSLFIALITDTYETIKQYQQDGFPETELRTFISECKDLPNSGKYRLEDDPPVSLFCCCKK
The test can be described thus: Fluorescent TRPML3 assay (as for TRPML1). The class given is cell-based. The settings on record: as TRPML1 assay with TRPML3 subtype; read-out: Human TRPML 3 EC50. The method, then:
as §1, §2, §3, §4, §5
(§7) Assays for TRPML2 and TRPML3 were performed as above for TRPML1, by substituting the appropriate TRPML2 or TRPML3 subtype for the TRPML1.
as §6

Test [3] has as its target T2, Human TRPML2 (Homo sapiens, UniProt Q8IZK6).
T2 construct: expressed in transfected cells
T2 sequence (Q8IZK6 1-566): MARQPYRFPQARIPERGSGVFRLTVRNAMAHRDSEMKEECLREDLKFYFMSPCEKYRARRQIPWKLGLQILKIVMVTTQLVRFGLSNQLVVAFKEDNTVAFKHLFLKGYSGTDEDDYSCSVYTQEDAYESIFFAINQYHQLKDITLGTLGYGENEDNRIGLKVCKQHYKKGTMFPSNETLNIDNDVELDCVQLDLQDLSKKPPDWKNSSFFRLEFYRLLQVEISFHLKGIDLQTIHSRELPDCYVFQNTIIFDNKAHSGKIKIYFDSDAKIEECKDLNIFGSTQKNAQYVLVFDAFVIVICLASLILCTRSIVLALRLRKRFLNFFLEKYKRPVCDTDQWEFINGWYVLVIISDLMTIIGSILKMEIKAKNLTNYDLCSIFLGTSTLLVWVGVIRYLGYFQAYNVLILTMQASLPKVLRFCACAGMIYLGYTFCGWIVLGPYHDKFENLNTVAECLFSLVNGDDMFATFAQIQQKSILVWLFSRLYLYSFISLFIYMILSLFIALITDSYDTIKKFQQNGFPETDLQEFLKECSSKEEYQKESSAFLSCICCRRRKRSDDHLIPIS
The test can be described thus: Fluorescent TRPML2 assay (as for TRPML1). The class given is cell-based. The settings on record: as TRPML1 assay with TRPML2 subtype; read-out: Human TRPML 2 EC50. How it is done:
as §1, §2, §3, §4, §5, §7, §6

The test system of test [4] is TRPMLs. The conditions noted are these: background statement; cited from earlier work.

Sequence of human TRPML1 (Q9GZU1 whole entry L15A/L16A/L577A/L578A, form open): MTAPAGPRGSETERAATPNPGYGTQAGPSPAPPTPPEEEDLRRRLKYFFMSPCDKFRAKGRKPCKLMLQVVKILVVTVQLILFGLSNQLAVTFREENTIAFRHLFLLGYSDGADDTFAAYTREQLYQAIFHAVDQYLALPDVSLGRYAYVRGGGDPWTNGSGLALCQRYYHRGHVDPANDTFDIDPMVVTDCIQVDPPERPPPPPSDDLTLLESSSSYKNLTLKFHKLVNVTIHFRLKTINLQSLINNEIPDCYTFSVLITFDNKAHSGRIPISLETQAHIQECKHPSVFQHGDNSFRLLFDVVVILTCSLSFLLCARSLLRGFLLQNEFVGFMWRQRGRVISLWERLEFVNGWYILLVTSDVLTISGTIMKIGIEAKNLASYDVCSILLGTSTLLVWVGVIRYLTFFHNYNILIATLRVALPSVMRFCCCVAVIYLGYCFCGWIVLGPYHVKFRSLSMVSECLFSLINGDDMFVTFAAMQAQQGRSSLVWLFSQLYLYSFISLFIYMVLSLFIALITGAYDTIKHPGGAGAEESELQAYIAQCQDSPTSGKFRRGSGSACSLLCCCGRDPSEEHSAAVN

For `C[C@@H]1CN(c2ncnc3c2c(C2CC2)cn3-c2cccc(F)c2)[C@@H](C)CN1C(=O)c1ccccc1` [Compound 105, ((2R,5S)-4-(5-cyclopropyl-7-(3-fluorophenyl)-7H-pyrrolo[2,3-d]pyrimidin-4-yl)-2,5-dimethylpiperazin-1-yl)(phenyl)methanone], the EC50 in test [1] is less than 100 nM; in test [2], 500 to 2000 nM; in test [3] it was greater than 2000 nM.
The matching figures for `C[C@@H]1CN(c2ncnc3c2c(N2CCC2)cn3-c2cc(C#N)ccn2)[C@@H](C)CN1C(=O)c1ccccc1` [Compound 107, 2-(5-(azetidin-1-yl)-4-((2S,5R)-4-benzoyl-2,5-dimethylpiperazin-1-yl)-7H-pyrrolo[2,3-d]pyrimidin-7-yl)isonicotinonitrile]: less than 100 nM, 100 to 500 nM and 100 to 500 nM.
In the case of `CC(C)c1ccccc1C(=O)N1C[C@H](C)N(c2ncnc3c2c(-c2ccccc2F)cn3-c2cc(C#N)ccn2)C[C@H]1C` [Compound 120, 2-(5-(2-fluorophenyl)-4-((2S,5R)-4-(2-isopropylbenzoyl)-2,5-dimethylpiperazin-1-yl)-7H-pyrrolo[2,3-d]pyrimidin-7-yl)isonicotinonitrile], the EC50 in test [1] was less than 100 nM; in test [2], less than 100 nM; in test [3], 100 to 500 nM.
Regarding `C[C@@H]1CN(c2ncnc3c2c(C(F)(F)F)cn3-c2cccc(F)c2)[C@@H](C)CN1C(=O)c1ccccc1` [Compound 106, ((2R,5S)-4-(7-(3-fluorophenyl)-5-(trifluoromethyl)-7H-pyrrolo[2,3-d]pyrimidin-4-yl)-2,5-dimethylpiperazin-1-yl)(phenyl)methanone], the EC50 in test [1] was less than 100 nM; in test [2], 500 to 2000 nM; in test [3] it was greater than 2000 nM.
The matching figures for `C[C@@H]1CN(c2ncnc3c2c(N2CCC2)cn3-c2cccc(F)c2)[C@@H](C)CN1C(=O)c1ccccc1` [Compound 108, ((2R,5S)-4-(5-(azetidin-1-yl)-7-(3-fluorophenyl)-7H-pyrrolo[2,3-d]pyrimidin-4-yl)-2,5-dimethylpiperazin-1-yl)(phenyl)methanone]: less than 100 nM, 500 to 2000 nM and 500 to 2000 nM.
The matching figures for `C[C@@H]1CN(c2ncnc3c2c(C2CCC2)cn3-c2cc(C#N)ccn2)[C@@H](C)CN1C(=O)c1ccccc1` [Compound 110, 2-(4-((2S,5R)-4-benzoyl-2,5-dimethylpiperazin-1-yl)-5-cyclobutyl-7H-pyrrolo[2,3-d]pyrimidin-7-yl)isonicotinonitrile]: less than 100 nM, 100 to 500 nM and 100 to 500 nM.
For `C[C@@H]1CN(c2ncnc3c2c(-c2ccccc2F)cn3-c2cc(C#N)ccn2)[C@@H](C)CN1C(=O)c1ccccc1` [Compound 109, 2-(4-((2S,5R)-4-benzoyl-2,5-dimethylpiperazin-1-yl)-5-(2-fluorophenyl)-7H-pyrrolo[2,3-d]pyrimidin-7-yl)isonicotinonitrile], in that order: less than 100 nM, less than 100 nM and 100 to 500 nM.
As for `CC1CC(C)(C)N(C(=O)CN2C(=O)c3ccccc3C2=O)c2ccccc21` (stereo not shown) [ML-SA1], the “concentration needed to effectively activate TRPMLs” value in test [4] was ~ 10 μM.
